Data from patent publication US10758534B2 (Vertex Pharmaceuticals Incorporated, priority 2014, dated 2020).

Target: T1, F508del (Homo sapiens, UniProt P13569, DEL508-508)
T1 construct: expressed in transfected cells
Assay: Protocol 1: membrane potential optical assay (FLIPR III, voltage sensing dye), identification of potentiator compounds
Assay type: cell-based
Conditions: Table 3, compounds of Table 1
In short: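 NIH3T3 F508del cells, 27° C × 24 hrs; compound/DMSO pretreat → redistribution dye load → single forskolin addition with Cl⁻ gradient (gluconate-substituted bath, HEPES pH 7.4). FLIPR III membrane-potential fluorescence read.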

T1 sequence (P13569 with tags, fused parts or gaps DEL508-508): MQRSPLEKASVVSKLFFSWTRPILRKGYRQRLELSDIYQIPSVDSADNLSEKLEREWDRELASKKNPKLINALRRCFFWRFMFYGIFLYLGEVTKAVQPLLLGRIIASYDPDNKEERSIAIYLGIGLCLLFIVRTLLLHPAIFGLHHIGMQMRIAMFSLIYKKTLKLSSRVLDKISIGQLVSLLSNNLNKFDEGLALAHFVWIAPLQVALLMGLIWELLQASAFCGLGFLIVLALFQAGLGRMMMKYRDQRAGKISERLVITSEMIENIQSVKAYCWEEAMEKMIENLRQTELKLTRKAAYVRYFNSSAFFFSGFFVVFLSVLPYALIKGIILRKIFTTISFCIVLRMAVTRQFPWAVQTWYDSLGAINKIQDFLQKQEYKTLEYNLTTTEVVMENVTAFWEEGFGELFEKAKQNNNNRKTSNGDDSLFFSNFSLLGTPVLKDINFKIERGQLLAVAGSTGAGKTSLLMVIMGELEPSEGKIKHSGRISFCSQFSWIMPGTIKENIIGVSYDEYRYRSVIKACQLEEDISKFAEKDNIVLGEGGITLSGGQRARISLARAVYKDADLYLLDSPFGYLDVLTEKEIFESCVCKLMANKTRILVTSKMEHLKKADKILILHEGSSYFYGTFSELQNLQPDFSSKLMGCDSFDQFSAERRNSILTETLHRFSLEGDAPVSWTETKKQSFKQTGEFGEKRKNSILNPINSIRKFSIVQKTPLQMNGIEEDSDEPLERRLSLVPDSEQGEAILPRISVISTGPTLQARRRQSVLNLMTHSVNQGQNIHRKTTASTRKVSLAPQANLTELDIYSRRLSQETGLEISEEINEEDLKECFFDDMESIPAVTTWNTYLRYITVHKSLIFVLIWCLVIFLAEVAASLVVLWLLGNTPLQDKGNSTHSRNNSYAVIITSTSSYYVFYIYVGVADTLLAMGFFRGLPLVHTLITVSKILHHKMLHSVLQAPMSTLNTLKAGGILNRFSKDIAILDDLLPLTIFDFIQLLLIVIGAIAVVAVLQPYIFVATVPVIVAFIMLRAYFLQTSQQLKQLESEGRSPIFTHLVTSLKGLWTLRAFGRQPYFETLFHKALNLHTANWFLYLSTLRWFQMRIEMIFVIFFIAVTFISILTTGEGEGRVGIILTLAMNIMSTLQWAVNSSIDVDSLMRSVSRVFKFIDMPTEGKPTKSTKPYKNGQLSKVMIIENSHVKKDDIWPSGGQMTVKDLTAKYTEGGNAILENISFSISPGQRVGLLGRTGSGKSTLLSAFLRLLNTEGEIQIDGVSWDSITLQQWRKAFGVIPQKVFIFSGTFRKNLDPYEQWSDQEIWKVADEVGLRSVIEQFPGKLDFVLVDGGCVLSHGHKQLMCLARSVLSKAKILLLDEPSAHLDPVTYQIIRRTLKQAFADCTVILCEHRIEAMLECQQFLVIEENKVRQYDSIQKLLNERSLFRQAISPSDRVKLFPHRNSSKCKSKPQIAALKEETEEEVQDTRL

| Structure (SMILES) | EC30 |
| --- | --- |
| Cc1cc(C)c(Oc2nc(C3=CCOCC3)ccc2C(=O)NS(=O)(=O)c2cccc(N)n2)c(C)c1 [Compound 976, N-[(6-amino-2-pyridyl)sulfonyl]-6-(3,6-dihydro-2H-pyran-4-yl)-2-(2,4,6-trimethylphenoxy)pyridine-3-carboxamide] | ++ (“++” means between 3 uM and 10 uM) |
| Cc1cc(C)c(Oc2nc(-c3cccc4[nH]ccc34)ccc2C(=O)NS(=O)(=O)c2cccc(N)n2)c(C)c1 [Compound 977, N-[(6-amino-2-pyridyl)sulfonyl]-6-(1H-indol-4-yl)-2-(2,4,6-trimethylphenoxy)pyridine-3-carboxamide] | ++ (“++” means between 3 uM and 10 uM) |
| CC(C)COc1cc(F)cc(-c2ccc(C(=O)NS(=O)(=O)c3cccc(N)n3)c(OC3C(C)CCCC3C)n2)c1 (centres unmarked) [Compound 978, N-[(6-amino-2-pyridyl)sulfonyl]-2-(2,6-dimethylcyclohexoxy)-6-(3-fluoro-5-isobutoxy-phenyl)pyridine-3-carboxamide] | +++ (“+++” means <3 uM) |
| CC(C)Oc1ccc(-c2ccc(C(=O)NS(=O)(=O)c3cccc(N)n3)c(N3CCC(C)C(C)C3)n2)cn1 (centres unmarked) [Compound 979, N-[(6-amino-2-pyridyl)sulfonyl]-2-(3,4-dimethyl-1-piperidyl)-6-(6-isopropoxy-3-pyridyl)pyridine-3-carboxamide] | +++ (“+++” means <3 uM) |
| COc1ccc(-c2ccc(C(=O)NS(=O)(=O)c3ccc[nH]c3=O)c(Oc3c(C)cc(C)cc3C)n2)cc1 [Compound 980, 6-(4-methoxyphenyl)-N-[(2-oxo-1H-pyridin-3-yl)sulfonyl]-2-(2,4,6-trimethylphenoxy)pyridine-3-carboxamide] | ++ (“++” means between 3 uM and 10 uM) |
| CC(C)COc1cc(F)cc(-c2ccc(C(=O)NS(=O)(=O)c3ccn[nH]3)c(N3Cc4ccccc4C3)n2)c1 [Compound 981, 6-(3-fluoro-5-isobutoxy-phenyl)-2-isoindolin-2-yl-N-(1H-pyrazol-5-ylsulfonyl)pyridine-3-carboxamide] | ++ (“++” means between 3 uM and 10 uM) |
| Cc1cc(C)c(Oc2nc(C)ccc2C(=O)NS(=O)(=O)c2cccc(NCCCN)n2)c(C)c1 [Compound 982, N-[[6-(3-aminopropylamino)-2-pyridyl]sulfonyl]-6-methyl-2-(2,4,6-trimethylphenoxy)pyridine-3-carboxamide] | ++ (“++” means between 3 uM and 10 uM) |
| CNc1ccc(C(=O)NS(=O)(=O)c2cccc(N)n2)c(Oc2c(C)cc(C)cc2C)n1 [Compound 983, N-[(6-amino-2-pyridyl)sulfonyl]-6-(methylamino)-2-(2,4,6-trimethylphenoxy)pyridine-3-carboxamide] | ++ (“++” means between 3 uM and 10 uM) |
| COc1cc(F)c(-c2ccc(C(=O)NS(=O)(=O)c3cccc(N)n3)c(Oc3c(C)cc(C)cc3C)n2)cc1F [Compound 984, N-[(6-amino-2-pyridyl)sulfonyl]-6-(2,5-difluoro-4-methoxy-phenyl)-2-(2,4,6-trimethylphenoxy)pyridine-3-carboxamide] | +++ (“+++” means <3 uM) |
| C[C@@H]1CN(c2nc(C(C)(C)C)ccc2C(=O)NS(=O)(=O)c2cccc(N)n2)C(C)(C)C1 [Compound 985, N-[(6-amino-2-pyridyl)sulfonyl]-6-tert-butyl-2-[(4S)-2,2,4-trimethylpyrrolidin-1-yl]pyridine-3-carboxamide] | +++ (“+++” means <3 uM) |
| COCC1CCN(c2nc(C(C)(C)C)ccc2C(=O)NS(=O)(=O)c2cccc(N)n2)CC1 [Compound 986, N-[(6-amino-2-pyridyl)sulfonyl]-6-tert-butyl-2-[4-(methoxymethyl)-1-piperidyl]pyridine-3-carboxamide] | ++ (“++” means between 3 uM and 10 uM) |
| CC(C)Oc1ccc(-c2ccc(C(=O)NS(=O)(=O)c3cccc(N)n3)c(N3CCCC34CCC4)n2)cn1 [Compound 987, N-[(6-amino-2-pyridyl)sulfonyl]-2-(8-azaspiro[3.4]octan-8-yl)-6-(6-isopropoxy-3-pyridyl)pyridine-3-carboxamide] | +++ (“+++” means <3 uM) |
| CC(C)COc1cncc(-c2ccc(C(=O)NS(=O)(=O)c3cccc(N)n3)c(N3CC(C)CC3(C)C)n2)n1 (centres unmarked) [Compound 988, N-[(6-amino-2-pyridyl)sulfonyl]-6-(6-isobutoxypyrazin-2-yl)-2-(2,2,4-trimethylpyrrolidin-1-yl)pyridine-3-carboxamide] | +++ (“+++” means <3 uM) |
| Cc1cc(C)c(Oc2nc(-c3cc(F)cc(OC(C)C)c3)ccc2C(=O)NS(=O)(=O)c2nccnc2N)c(C)c1 [Compound 989, N-(3-aminopyrazin-2-yl)sulfonyl-6-(3-fluoro-5-isopropoxy-phenyl)-2-(2,4,6-trimethylphenoxy)pyridine-3-carboxamide] | +++ (“+++” means <3 uM) |
| CC(C)Oc1ccc(-c2ccc(C(=O)NS(=O)(=O)c3ccn[nH]3)c(N3C[C@H](C)C[C@@H](C)C3)n2)cn1 [Compound 990, 2-[(3R,5R)-3,5-dimethyl-1-piperidyl]-6-(6-isopropoxy-3-pyridyl)-N-(1H-pyrazol-5-ylsulfonyl)pyridine-3-carboxamide] | +++ (“+++” means <3 uM) |
| CC(C)COc1cc(F)cc(-c2ccc(C(=O)NS(=O)(=O)c3cccc(N)n3)c(N3CCC(C)CC3)n2)c1 [Compound 991, N-[(6-amino-2-pyridyl)sulfonyl]-6-(3-fluoro-5-isobutoxy-phenyl)-2-(4-methyl-1-piperidyl)pyridine-3-carboxamide] | +++ (“+++” means <3 uM) |
| CC(C)Oc1ccc(-c2ccc(C(=O)NS(=O)(=O)c3cccc(N)n3)c(N3CC[C@@H](C)C3(C)C)n2)cn1 [Compound 992, N-[(6-amino-2-pyridyl)sulfonyl]-6-(6-isopropoxy-3-pyridyl)-2-[(3R)-2,2,3-trimethylpyrrolidin-1-yl]pyridine-3-carboxamide] | +++ (“+++” means <3 uM) |
| COc1ncc(Cl)cc1-c1ccc(C(=O)NS(=O)(=O)c2cccc(N)n2)c(Oc2c(C)cc(C)cc2C)n1 [Compound 993, N-[(6-amino-2-pyridyl)sulfonyl]-6-(5-chloro-2-methoxy-3-pyridyl)-2-(2,4,6-trimethylphenoxy)pyridine-3-carboxamide] | +++ (“+++” means <3 uM) |
| CC(C)Oc1ccc(-c2ccc(C(=O)NS(=O)(=O)c3cccc(N)n3)c(N3CCCC3Cc3ccccc3)n2)cn1 (centres unmarked) [Compound 994, N-[(6-amino-2-pyridyl)sulfonyl]-2-(2-benzylpyrrolidin-1-yl)-6-(6-isopropoxy-3-pyridyl)pyridine-3-carboxamide] | +++ (“+++” means <3 uM) |
| Cc1cc(C(=O)NS(=O)(=O)c2cccc(N)n2)c(N2CC(C)CC2(C)C)nc1-c1ccc(OC(C)C)nc1 (centres unmarked) [Compound 995, N-[(6-amino-2-pyridyl)sulfonyl]-6-(6-isopropoxy-3-pyridyl)-5-methyl-2-(2,2,4-trimethylpyrrolidin-1-yl)pyridine-3-carboxamide] | +++ (“+++” means <3 uM) |
| CCCOc1ccc(-c2ccc(C(=O)NS(=O)(=O)c3cccc(N)n3)c(Oc3c(C)cc(C)cc3C)n2)cc1 [Compound 996, N-[(6-amino-2-pyridyl)sulfonyl]-6-(4-propoxyphenyl)-2-(2,4,6-trimethylphenoxy)pyridine-3-carboxamide] | +++ (“+++” means <3 uM) |
| CC(C)COc1cc(F)cc(-c2ccc(C(=O)NS(=O)(=O)c3ccn[nH]3)c(N3CCC(C)C3(C)C)n2)c1 (centres unmarked) [Compound 997, 6-(3-fluoro-5-isobutoxy-phenyl)-N-(1H-pyrazol-5-ylsulfonyl)-2-(2,2,3-trimethylpyrrolidin-1-yl)pyridine-3-carboxamide] | ++ (“++” means between 3 uM and 10 uM) |
| CC(CO)Oc1ccc(-c2ccc(C(=O)NS(=O)(=O)c3cccc(N)n3)c(N3[C@H](C)CC[C@@H]3C)n2)cn1 (stereo partly drawn) [Compound 998, N-[(6-amino-2-pyridyl)sulfonyl]-2-[(2S,5R)-2,5-dimethylpyrrolidin-1-yl]-6-[6-(2-hydroxy-1-methyl-ethoxy)-3-pyridyl]pyridine-3-carboxamide] | ++ (“++” means between 3 uM and 10 uM) |
| CCCOc1ccc(-c2ccc(C(=O)NS(=O)(=O)c3ccc[nH]c3=O)c(Oc3c(C)cc(C)cc3C)n2)cc1Cl [Compound 999, 6-(3-chloro-4-propoxy-phenyl)-N-[(2-oxo-1H-pyridin-3-yl)sulfonyl]-2-(2,4,6-trimethylphenoxy)pyridine-3-carboxamide] | ++ (“++” means between 3 uM and 10 uM) |
| Cc1cc(C)c(Oc2nc(-c3ccc(C)c(F)c3)ccc2C(=O)NS(=O)(=O)c2cccc(N)n2)c(C)c1 [Compound 1000, N-[(6-amino-2-pyridyl)sulfonyl]-6-(3-fluoro-4-methyl-phenyl)-2-(2,4,6-trimethylphenoxy)pyridine-3-carboxamide] | +++ (“+++” means <3 uM) |
| CC(C)Oc1cc(-c2ccc(C(=O)NS(=O)(=O)c3ccc[nH]c3=O)c(N3[C@H](C)CC[C@@H]3C)n2)ccc1Cl [Compound 1001, 6-(4-chloro-3-isopropoxy-phenyl)-2-[(2S,5R)-2,5-dimethylpyrrolidin-1-yl]-N-[(2-oxo-1H-pyridin-3-yl)sulfonyl]pyridine-3-carboxamide] | ++ (“++” means between 3 uM and 10 uM) |
| Cc1cc(C)c(Oc2nc(-c3ccc(C(C)C)cc3)ccc2C(=O)NS(=O)(=O)c2ccc[nH]c2=O)c(C)c1 [Compound 1002, 6-(4-isopropylphenyl)-N-[(2-oxo-1H-pyridin-3-yl)sulfonyl]-2-(2,4,6-trimethylphenoxy)pyridine-3-carboxamide] | +++ (“+++” means <3 uM) |
| CC(C)COc1cc(F)cc(-c2ccc(C(=O)NS(=O)(=O)c3cccc(N)n3)c(N3CCCCC3(C)C)n2)c1 [Compound 1004, N-[(6-amino-2-pyridyl)sulfonyl]-2-(2,2-dimethyl-1-piperidyl)-6-(3-fluoro-5-isobutoxy-phenyl)pyridine-3-carboxamide] | +++ (“+++” means <3 uM) |
| CC(C)COc1cc(F)cc(-c2ccc(C(=O)NS(=O)(=O)c3ccn[nH]3)c(N3CCCC(C)(C)C3)n2)c1 [Compound 1005, 2-(3,3-dimethyl-1-piperidyl)-6-(3-fluoro-5-isobutoxy-phenyl)-N-(1H-pyrazol-5-ylsulfonyl)pyridine-3-carboxamide] | +++ (“+++” means <3 uM) |
